The text below walks through data of publication PMC11395219 (Molecular Cancer, 2024).

For the experiment, the target named is T1, Vitamin D receptor (VDR) (Homo sapiens, UniProt P11473).
T1 sequence (P11473 118-427 limits assumed): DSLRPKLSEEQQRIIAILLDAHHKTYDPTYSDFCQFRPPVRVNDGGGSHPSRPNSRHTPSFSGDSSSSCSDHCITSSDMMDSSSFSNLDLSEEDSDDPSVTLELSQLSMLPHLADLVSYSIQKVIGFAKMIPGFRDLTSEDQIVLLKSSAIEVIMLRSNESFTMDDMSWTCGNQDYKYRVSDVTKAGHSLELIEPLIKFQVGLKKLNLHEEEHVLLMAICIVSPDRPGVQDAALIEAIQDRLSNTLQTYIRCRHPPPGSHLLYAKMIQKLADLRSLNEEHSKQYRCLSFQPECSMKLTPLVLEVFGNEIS
Description: SPR. Format: binding.

Turning to `O=c1cc(-c2ccc(O)cc2)oc2c([C@@H]3O[C@H](CO)[C@@H](O)[C@H](O)[C@H]3O)c(O)cc(O)c12` [vitexin], the Kd (usually the free concentration of one partner at which half of the binding sites on the other are occupied at equilibrium, for simple one-to-one binding) worked out at 34.7 µM. That is a double-digit micromolar value.
